Test results from ChEMBL document CHEMBL1123926, “Synthesis and neuroleptic activity of a series of 1-[1-(benzo-1,4-dioxan-2-ylmethyl)-4-piperidinyl]benzim idazolone derivatives” (J Med Chem, 1987).

What was measured:
Rattus norvegicus = species: Rattus norvegicus; experiment: Cataleptogenic activity was evaluated for the compound as the 50% effective dose required to induce cataleptic effect in rats; assay type: functional
[1] = Therapeutic ratio of ED50 of catalepsy in rats to ED50 of climbing in mouse; assay type: ADME, organism-based; settings: rat and mouse, in vivo
D(2) dopamine receptor [2] = target: T1, D(2) dopamine receptor (Bos taurus, UniProt P20288); experiment: Displacement of [3H]spiroperidol from bovine caudate nucleus membrane Dopamine receptor D2
Mus musculus [3] = experiment: Neuroleptic activity determined by its inhibitory effect on apomorphine-induced climbing behavior in mice by intraperitoneal administration. Range is 0.019-0.092; assay type: functional; settings: ip
[4] = target: Dopamine receptor (Mus musculus) (UniProt P51436+Q8BLD9+Q61616+P61168+P30728); experiment: Neuroleptic activity determined by its inhibitory effect on apomorphine-induced climbing behavior in mice by intraperitoneal administration; assay type: functional, organism-based
Mus musculus [5] = experiment: Neuroleptic activity determined by its inhibitory effect on apomorphine-induced climbing behavior in mice by intraperitoneal administration. Range is 0.037-0.256; assay type: functional; settings: ip
Mus musculus [6] = experiment: Neuroleptic activity determined by its inhibitory effect on apomorphine-induced climbing behavior in mice by intraperitoneal administration. Range is between 0.035-0.192; assay type: functional; settings: ip
Mus musculus [7] = experiment: Neuroleptic activity determined by its inhibitory effect on apomorphine-induced climbing behavior in mice by intraperitoneal administration. Range is 0.009-0.109; assay type: functional; settings: ip
Mus musculus [8] = experiment: Neuroleptic activity determined by its inhibitory effect on apomorphine-induced climbing behavior in mice by peroral administration; assay type: functional; settings: po
[9] = Therapeutic ratio of ED50 of catalepsy to ED50 of climbing in […]; assay type: ADME
D(2) dopamine receptor [10] = target: T1, D(2) dopamine receptor; experiment: Binding affinity towards dopamine receptor D2 was determined by displacement of [3H]spiroperidol from bovine nucleus caudate membranes.
Mus musculus [11] = experiment: Neuroleptic activity determined by its inhibitory effect on apomorphine-induced climbing behavior in mice by intraperitoneal administration in experiment 2. Range is 0.11-0.41; assay type: functional; settings: ip
Mus musculus [12] = experiment: Neuroleptic activity determined by its inhibitory effect on apomorphine-induced climbing behavior in mice by peroral administration in experiment 1.Range is 0.02-0.42; assay type: functional; settings: po
Mus musculus [13] = experiment: Neuroleptic activity determined by its inhibitory effect on apomorphine-induced climbing behavior in mice by intraperitoneal administration. Range is 0.03-0.064; assay type: functional; settings: ip
Mus musculus [14] = experiment: Neuroleptic activity determined by its inhibitory effect on apomorphine-induced climbing behavior in mice by intraperitoneal administration. Range is 0.040-0.075; assay type: functional; settings: ip
Mus musculus [15] = experiment: Neuroleptic activity determined by its inhibitory effect on apomorphine-induced climbing behavior in mice by intraperitoneal administration. Range is 0.071-0.206; assay type: functional; settings: ip
Mus musculus [16] = experiment: Neuroleptic activity determined by its inhibitory effect on apomorphine-induced climbing behavior in mice by intraperitoneal administration. Range is 0.008-0.766; assay type: functional; settings: ip
Mus musculus [17] = experiment: Neuroleptic activity determined by its inhibitory effect on apomorphine-induced climbing behavior in mice by intraperitoneal administration. Range is between 0.0033-0.278; assay type: functional; settings: ip
Mus musculus [18] = species: Mus musculus; experiment: animal or person; settings: ip
Description: Neuroleptic activity determined by its inhibitory effect on apomorphine-induced climbing behavior in mice by intraperitoneal administration in experiment 2 Range is 0.05-0.17

Mus musculus [19] = experiment: Neuroleptic activity determined by its inhibitory effect on apomorphine-induced climbing behavior in mice by intraperitoneal administration. Range is 0.007-0.029; assay type: functional; settings: ip
Mus musculus [20] = experiment: Neuroleptic activity determined by its inhibitory effect on apomorphine-induced climbing behavior in mice by intraperitoneal administration. Range is between 0.009-0.037; assay type: functional; settings: ip
Mus musculus [21] = experiment: Neuroleptic activity determined by its inhibitory effect on apomorphine-induced climbing behavior in mice by intraperitoneal administration. Range is 0.007-0.250; assay type: functional; settings: ip

T1 sequence (P20288 whole entry): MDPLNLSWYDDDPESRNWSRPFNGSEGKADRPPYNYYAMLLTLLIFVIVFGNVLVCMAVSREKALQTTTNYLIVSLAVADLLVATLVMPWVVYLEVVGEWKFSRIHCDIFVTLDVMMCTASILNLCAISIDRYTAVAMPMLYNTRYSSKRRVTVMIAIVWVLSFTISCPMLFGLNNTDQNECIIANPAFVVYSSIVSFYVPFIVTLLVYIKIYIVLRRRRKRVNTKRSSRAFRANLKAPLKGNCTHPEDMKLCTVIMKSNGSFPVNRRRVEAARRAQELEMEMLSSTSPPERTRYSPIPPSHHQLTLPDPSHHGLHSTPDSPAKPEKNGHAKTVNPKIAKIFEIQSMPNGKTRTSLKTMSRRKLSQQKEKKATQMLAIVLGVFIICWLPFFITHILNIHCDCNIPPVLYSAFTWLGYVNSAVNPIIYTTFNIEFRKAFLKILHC

| Compound | ED50 (Rattus norvegicus) | ED50 [4] | also measured |
| --- | --- | --- | --- |
| Cc1cccc2c1OCC(CN1CCC(n3c(O)nc4cc(F)ccc43)CC1)O2 (configuration not stated) | 8 mg/kg |  | selectivity ratio [1]: 186; Ki (D(2) dopamine receptor [2]): 8 nM; ED50 (Mus musculus [3]): 0.043 mg/kg |
| Nc1ccc2c(c1)nc(O)n2C1CCN(CC2COc3ccccc3O2)CC1 (configuration not stated) |  | 3.9 mg/kg |  |
| Oc1nc2cc(Cl)ccc2n1C1CCN(CC2COc3ccc(Cl)cc3O2)CC1 (configuration not stated) |  | 0.75 mg/kg |  |
| Oc1nc2cc(F)ccc2n1C1CCN(CC2COc3ccc(F)cc3O2)CC1 (configuration not stated) | 20 mg/kg |  | selectivity ratio [1]: 204; ED50 (Mus musculus [5]): 0.098 mg/kg |
| CCc1ccc2c(c1)nc(O)n2C1CCN(CC2COc3ccccc3O2)CC1 (configuration not stated) |  | 0.17 mg/kg |  |
| Oc1nc2cc(Br)ccc2n1C1CCN(CC2COc3ccccc3O2)CC1 (configuration not stated) | 20 mg/kg |  | selectivity ratio [1]: 244; Ki (D(2) dopamine receptor [2]): 70 nM; ED50 (Mus musculus [6]): 0.082 mg/kg |
| Oc1nc2cccc(Cl)c2n1C1CCN(CC2COc3ccc(F)cc3O2)CC1 (configuration not stated) |  | > 25 mg/kg |  |
| Cc1ccc2c(c1)OCC(CN1CCC(n3c(O)nc4cc(C)ccc43)CC1)O2 (configuration not stated) | 6 mg/kg |  | selectivity ratio [1]: 188; Ki (D(2) dopamine receptor [2]): 40 nM; ED50 (Mus musculus [7]): 0.032 mg/kg |
| Oc1nc2cc(Cl)ccc2n1C1CCN(CC2COc3ccc(F)cc3O2)CC1 (configuration not stated) |  |  | ED50 (Mus musculus [8]): 0.14 mg/kg |
| Cc1cccc2c1OCC(CN1CCC(n3c(O)nc4cc(Cl)ccc43)CC1)O2 (configuration not stated) |  | 1.3 mg/kg |  |
| Oc1nc2cc(Cl)c(Cl)cc2n1C1CCN(CC2COc3ccccc3O2)CC1 (configuration not stated) |  | 0.45 mg/kg |  |
| Oc1nc2ccc(Cl)cc2n1C1CCN(CC2COc3ccccc3O2)CC1 (configuration not stated) |  | 0.11 mg/kg |  |
| Oc1nc2cccc(Cl)c2n1C1CCN(CC2COc3ccccc3O2)CC1 (configuration not stated) |  | > 20 mg/kg |  |
| Cc1ccc2c(c1)nc(O)n2C1CCN(CC2COc3ccc(Cl)cc3O2)CC1 (configuration not stated) | 1 mg/kg | 0.093 mg/kg | selectivity ratio [9]: 11; Ki (D(2) dopamine receptor [10]): 30 nM |
| Cc1cc2c(cc1C)OC(CN1CCC(n3c(O)nc4cc(Cl)ccc43)CC1)CO2 (configuration not stated) |  | 0.8 mg/kg |  |
| Oc1nc2ccc(Cl)cc2n1C1CCN(CC2COc3ccc(F)cc3O2)CC1 (configuration not stated) |  | 0.16 mg/kg |  |
| Cc1c(Cl)ccc2nc(O)n(C3CCN(CC4COc5ccc(F)cc5O4)CC3)c12 (configuration not stated) |  | > 25 mg/kg |  |
| O=c1[nH]c2cc(Cl)ccc2n1C1CCN(CC2COc3ccccc3O2)CC1 (configuration not stated) [AXAMOZIDE] | > 40 mg/kg |  | ED50 (Mus musculus [11]): 0.21 mg/kg; selectivity ratio [1]: > 444; Ki (D(2) dopamine receptor [2]): 30 nM; ED50 (Mus musculus [12]): 0.09 mg/kg |
| Oc1nc2cc(Cl)ccc2n1C1CCN(CC2COc3cc(Cl)c(Cl)cc3O2)CC1 (configuration not stated) |  | 6 mg/kg |  |
| Oc1nc2cc(F)ccc2n1C1CCN(CC2COc3ccc(Cl)cc3O2)CC1 (configuration not stated) |  |  | ED50 (Mus musculus [13]): 0.044 mg/kg |
| Oc1nc2cc(Cl)ccc2n1C1CCN(CC2COc3cc(F)ccc3O2)CC1 (configuration not stated) |  | 0.2 mg/kg |  |
| Cc1cc2c(cc1C)OC(CN1CCC(n3c(O)nc4cc(F)ccc43)CC1)CO2 (configuration not stated) | > 20 mg/kg |  | selectivity ratio [1]: > 363; ED50 (Mus musculus [14]): 0.055 mg/kg; Ki (D(2) dopamine receptor [2]): 25 nM |

| Compound | ED50 (Rattus norvegicus) | ED50 [4] | also measured |
| --- | --- | --- | --- |
| Cc1ccc2c(c1)OCC(CN1CCC(n3c(O)nc4cc(Cl)ccc43)CC1)O2 (configuration not stated) | 20 mg/kg |  | selectivity ratio [1]: 165; Ki (D(2) dopamine receptor [2]): 60 nM; ED50 (Mus musculus [15]): 0.121 mg/kg |
| Cc1ccc2c(c1)nc(O)n2C1CCN(CC2COc3cc(C)c(C)cc3O2)CC1 (configuration not stated) | 10 mg/kg |  | ED50 (Mus musculus [16]): 0.079 mg/kg; selectivity ratio [1]: 126; Ki (D(2) dopamine receptor [2]): 45 nM |
| Oc1nc2cc(C(F)(F)F)ccc2n1C1CCN(CC2COc3ccc(F)cc3O2)CC1 (configuration not stated) |  | > 10 mg/kg |  |
| Oc1nc2cccnc2n1C1CCN(CC2COc3ccc(F)cc3O2)CC1 (configuration not stated) |  | > 25 mg/kg |  |
| COc1ccc2c(c1)nc(O)n2C1CCN(CC2COc3ccccc3O2)CC1 (configuration not stated) | 1 mg/kg |  | selectivity ratio [1]: 104; Ki (D(2) dopamine receptor [2]): 150 nM; ED50 (Mus musculus [17]): 0.0096 mg/kg |
| Oc1nc2cc(F)ccc2n1C1CCN(CC2COc3cc(Cl)c(Cl)cc3O2)CC1 (configuration not stated) |  | 5.5 mg/kg |  |
| O=C(CCCN1CCC(O)(c2ccc(Cl)cc2)CC1)c1ccc(F)cc1 [HALOPERIDOL] | 0.5 mg/kg |  | ED50 (Mus musculus [18]): 0.09 mg/kg |
| Cc1c(Cl)ccc2nc(O)n(C3CCN(CC4COc5ccccc5O4)CC3)c12 (configuration not stated) |  | 10 mg/kg |  |
| O=c1[nH]c2cc(F)ccc2n1C1CCN(CC2COc3cc(F)ccc3O2)CC1 (configuration not stated) |  |  | selectivity ratio [1]: < 8; Ki (D(2) dopamine receptor [2]): 70 nM |
| Oc1nc2cc(C(F)(F)F)ccc2n1C1CCN(CC2COc3ccccc3O2)CC1 (configuration not stated) |  | > 10 mg/kg |  |
| Oc1nc2cc(Cl)c(Cl)cc2n1C1CCN(CC2COc3ccc(F)cc3O2)CC1 (configuration not stated) |  | 1.4 mg/kg |  |
| Cc1ccc2c(c1)nc(O)n2C1CCN(CC2COc3cc(Cl)c(Cl)cc3O2)CC1 (configuration not stated) |  | 3.6 mg/kg |  |
| Oc1nc2cccnc2n1C1CCN(CC2COc3ccccc3O2)CC1 (configuration not stated) |  | > 10 mg/kg |  |
| Oc1nc2ccccc2n1C1CCN(CC2COc3ccccc3O2)CC1 (configuration not stated) |  | 0.7 mg/kg |  |
| Oc1nc2cc(F)ccc2n1C1CCN(CC2COc3cc(F)ccc3O2)CC1 (configuration not stated) | < 5 mg/kg | 0.63 mg/kg |  |
| CC(C)(C)c1ccc2c(c1)nc(O)n2C1CCN(CC2COc3ccccc3O2)CC1 (configuration not stated) |  | > 25 mg/kg |  |
| Cc1ccc2c(c1)nc(O)n2C1CCN(CC2COc3ccc(F)cc3O2)CC1 (configuration not stated) | 2.5 mg/kg |  | selectivity ratio [1]: 187; Ki (D(2) dopamine receptor [2]): 150 nM; ED50 (Mus musculus [19]): 0.014 mg/kg |
| Oc1nc2cc(F)ccc2n1C1CCN(CC2COc3ccccc3O2)CC1 (configuration not stated) |  |  | ED50 (Mus musculus [20]): 0.019 mg/kg |
| Oc1nc2cc(-c3ccccc3)ccc2n1C1CCN(CC2COc3ccccc3O2)CC1 (configuration not stated) |  | > 25 mg/kg |  |
| Cc1ccc2c(c1)nc(O)n2C1CCN(CC2COc3ccccc3O2)CC1 (configuration not stated) | 40 mg/kg |  | ED50 (Mus musculus [21]): 0.013 mg/kg; selectivity ratio [1]: 3080; Ki (D(2) dopamine receptor [2]): 120 nM |
| Cc1ccc2c(c1)nc(O)n2C1CCN(CC2COc3cc(F)ccc3O2)CC1 (configuration not stated) |  | 0.5 mg/kg |  |
